The target in experiment [1] is T1, Substance-K receptor (Cavia porcellus) (UniProt Q64077).
T1 sequence (whole entry): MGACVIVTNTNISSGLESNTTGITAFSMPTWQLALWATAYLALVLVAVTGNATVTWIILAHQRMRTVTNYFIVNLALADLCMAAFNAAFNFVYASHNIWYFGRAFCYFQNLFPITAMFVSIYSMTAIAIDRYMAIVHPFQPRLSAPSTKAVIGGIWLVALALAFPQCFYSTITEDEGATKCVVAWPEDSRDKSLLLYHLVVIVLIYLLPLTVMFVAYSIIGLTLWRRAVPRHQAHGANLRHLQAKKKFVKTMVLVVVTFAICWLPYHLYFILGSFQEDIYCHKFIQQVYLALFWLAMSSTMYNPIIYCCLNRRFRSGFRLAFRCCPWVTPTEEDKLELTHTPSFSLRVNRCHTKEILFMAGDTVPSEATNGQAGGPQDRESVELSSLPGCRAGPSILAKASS
The experiment in a line: Inhibition of [beta-Ala]NKA(4-10)-induced contraction of isolated guinea pig trachea. It counts as functional, tissue-based.

The target in experiment [2] is T2, Substance-K receptor (Homo sapiens, UniProt P21452).
T2 sequence (P21452 whole entry): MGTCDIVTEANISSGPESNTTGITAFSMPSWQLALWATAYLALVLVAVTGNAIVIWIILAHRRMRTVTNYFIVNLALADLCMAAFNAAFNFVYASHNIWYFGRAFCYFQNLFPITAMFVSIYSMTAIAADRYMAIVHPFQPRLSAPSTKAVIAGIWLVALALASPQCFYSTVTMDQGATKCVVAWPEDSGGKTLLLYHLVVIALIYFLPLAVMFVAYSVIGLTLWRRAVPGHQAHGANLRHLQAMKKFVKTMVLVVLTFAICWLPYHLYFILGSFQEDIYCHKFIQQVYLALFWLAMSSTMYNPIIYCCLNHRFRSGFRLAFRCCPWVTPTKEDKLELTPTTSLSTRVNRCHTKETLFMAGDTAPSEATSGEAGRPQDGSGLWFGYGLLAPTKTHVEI
Briefly: Displacement of [3H]- NKA from human NK-2 receptor expressed in MEL cells. It is filed as cell-based. A general note: Displacement assays read how much labelled ligand stays bound in the presence of the test substance.

The test system of experiment [3] is Cavia porcellus. The experiment in a line: Compound was administered perorally and evaluated for oral activity in neurokinin A-induced guinea pig dyspnea model at 5 umol/Kg dose. It counts as functional.
Experiment [4] concerns Cavia porcellus. Briefly: Compound was administered perorally and evaluated for oral activity in neurokinin A-induced guinea pig dyspnea model. It counts as functional.
In experiment [5] the test system is Cavia porcellus. The experiment in a line: Compound was administered perorally (po) and evaluated for oral activity in neurokinin A-induced guinea pig dyspnea model at 5 umol/kg dose. It counts as functional.
For experiment [6], the system named is Cavia porcellus. Briefly: Compound was administered intravenously and evaluated for activity against neurokinin A-induced guinea pig dyspnea model. The conditions noted are these: iv. It is filed as functional.

Broadly, the pKB is −log10 of the KB, conventionally taken in molar units. In experiment [1], `CC(=O)OCCC1CCN(CCC(CN(C)C(=O)c2ccccc2)c2ccc(Cl)c(Cl)c2)CC1` (stereo unspecified) showed a negative-log KB (pKB) of 7.8.
The term Ki denotes the dissociation constant of the complex between target and ligand, obtained from inhibition or displacement. By inhibition in vivo is commonly meant the percentage by which the read-out fell short of the control. Regarding `CN(CC(CCN1CCC(CO)CC1)c1ccc(Cl)c(Cl)c1)C(=O)c1ccccc1` (stereo unspecified), in experiment [1], the pKB came out at 8. Further, the affinity in experiment [2], expressed as Ki, was 142 nM. For the same molecule, in experiment [3], the inhibition in vivo at 5 µmol/kg came to 13%.
In experiment [1], `CCC(O)C1CCN(CCC(CN(C)C(=O)c2ccccc2)c2ccc(Cl)c(Cl)c2)CC1` (stereo unspecified) showed a negative-log KB (pKB) of 7.9. Further, the inhibitory constant (Ki) in experiment [2] worked out at 13.1 nM.
The like results for `CCC(=NO)C1CCN(CCC(CN(C)C(=O)c2ccccc2)c2ccc(Cl)c(Cl)c2)CC1` (stereo unspecified) were, in that order, 9.1 and 2.7 nM.
For orientation: ED50 means the dose that gives a 50% effect, or the effect in half of the subjects. Low readings indicate an effect at a small dose, high ones a need for a large dose. As for `CC(=O)NC1(c2ccccc2)CCN(CCC(CN(C)C(=O)c2ccccc2)c2ccc(Cl)c(Cl)c2)CC1` (stereo in doubt; 1) [listing 1 of 2 here], the ED50 in experiment [4] amounted to 1.97 µmol/kg. The molecule also registered an inhibition constant Ki in experiment [2] of 0.6 nM.
`CCC(=O)C1CCN(CCC(CN(C)C(=O)c2ccccc2)c2ccc(Cl)c(Cl)c2)CC1` (stereo unspecified) registered a pKB in experiment [1] of 8.6. Also, affinity in experiment [2] was put at a Ki of 9.2 nM.
The like results for `CCCC(O)C1CCN(CCC(CN(C)C(=O)c2ccccc2)c2ccc(Cl)c(Cl)c2)CC1` (stereo unspecified) were, in that order, 7.5 and 3.7 nM.
The molecule `CC/C(=N\O)C1CCN(CCC(CN(C)C(=O)c2ccccc2)c2ccc(Cl)c(Cl)c2)CC1` (stereo unspecified) registered a pKB in experiment [1] of 8.8. The same molecule yielded a Ki in experiment [2] of 1.3 nM. Also, in experiment [5], the inhibition in vivo at 5 µmol/kg turned out to be 20%.
As to `CCC(O)(CC)C1CCN(CC[C@H](CN(C)C(=O)c2ccccc2)c2ccc(Cl)c(Cl)c2)CC1`, the ED50 amounted to 3.49 µmol/kg in experiment [4] and 0.4 µmol/kg in experiment [6]. In experiment [1], this molecule showed a pKB of 8.1. The molecule further returned a Ki in experiment [2] of 0.84 nM.
In turn, `CC(=O)NC1(c2ccccc2)CCN(CCC(CN(C)C(=O)c2ccccc2)c2ccc(Cl)c(Cl)c2)CC1` (stereo in doubt; 2) [listing 1 of 2 here] returned a pKB in experiment [1] of 9.2.
For the molecule `CC(O)C1CCN(CCC(CN(C)C(=O)c2ccccc2)c2ccc(Cl)c(Cl)c2)CC1` (stereo unspecified), the negative logarithm of the KB (pKB) in experiment [1] is 7.8. The same molecule yielded an inhibition constant (Ki) in experiment [2] of 33.5 nM.
Turning to `CC(=O)NC1(c2ccccc2)CCN(CCC(CN(C)C(=O)c2ccccc2)c2ccc(Cl)c(Cl)c2)CC1` (stereo in doubt; 2) [listing 2 of 2 here], the Ki in experiment [2] came to 1.75 nM.
In experiment [1], `CN(CC(CCN1CCC(CCO)CC1)c1ccc(Cl)c(Cl)c1)C(=O)c1ccccc1` (stereo unspecified) showed a negative logarithm of the KB (pKB) of 8.3. Moreover, the inhibition constant (Ki) in experiment [2] turned out to be 47 nM. The molecule further had an inhibition in vivo at 5 µmol/kg in experiment [3] of 7%.
Consider `CC/C(=N\OC)C1CCN(CCC(CN(C)C(=O)c2ccccc2)c2ccc(Cl)c(Cl)c2)CC1` (stereo unspecified), for which the negative-log KB (pKB) in experiment [1] was found to be 7.6. The same molecule came in with a Ki in experiment [2] of 6.5 nM.
The like results for `CC/C(=N/O)C1CCN(CCC(CN(C)C(=O)c2ccccc2)c2ccc(Cl)c(Cl)c2)CC1` (stereo unspecified) were, in that order, 8.8 and 2.1 nM.
In turn, `CC(=O)NC1(c2ccccc2)CCN(CCC(CN(C)C(=O)c2ccccc2)c2ccc(Cl)c(Cl)c2)CC1` (stereo in doubt; 1) [listing 2 of 2 here] yielded a negative-log KB (pKB) in experiment [1] of 9.1.
In the case of `CCCC1CCN(CCC(CN(C)C(=O)c2ccccc2)c2ccc(Cl)c(Cl)c2)CC1` (stereo unspecified), the pKB in experiment [1] amounted to 7.5. For the same molecule, the Ki in experiment [2] turned out to be 9.9 nM.
With `CCCC(O)(CCC)C1CCN(CCC(CN(C)C(=O)c2ccccc2)c2ccc(Cl)c(Cl)c2)CC1` (stereo unspecified), the 50% effective dose (ED50) in experiment [4] turned out to be 1.4 µmol/kg; in experiment [6], 0.54 µmol/kg. Further, the pKB in experiment [1] was 8.4. In experiment [2], this molecule displayed a Ki of 4.7 nM.
Turning to `CCC(O)(CC)C1CCN(CCC(CN(C)C(=O)c2ccccc2)c2ccc(Cl)c(Cl)c2)CC1` (stereo unspecified), the pKB in experiment [1] stood at 8.8. In experiment [2], this molecule yielded an inhibition constant Ki of 3.5 nM. In addition, the inhibition in vivo at 5 µmol/kg in experiment [5] turned out to be 63%.
The molecule `CN(CC(CCN1CCC(C(C)(C)O)CC1)c1ccc(Cl)c(Cl)c1)C(=O)c1ccccc1` (stereo unspecified) registered a negative-log KB (pKB) in experiment [1] of 7.5. The same molecule gave a Ki in experiment [2] of 7.7 nM.
The like results for `CC(=O)NCCC1CCN(CCC(CN(C)C(=O)c2ccccc2)c2ccc(Cl)c(Cl)c2)CC1` (stereo unspecified) were, in that order, 7.9 and 66 nM.

The values above are taken from ChEMBL document CHEMBL1130898, “4-Alkylpiperidines related to SR-48968: potent antagonists of the neurokinin-2 (NK2) receptor” (Bioorg Med Chem Lett, 1998).
